Results on 1 substance are retold here after US11186817B2, “Chemically defined cell culture media additive” (IUCF-HYU (INDUSTRY-UNIVERSITY COOPERATION FOUNDATION …, priority 2014, dated 2021).

In this test the test system is CHO DG44 cell line. Briefly: Subculture characteristics of CHO DG44 in HY-CDM medium supplemented with THF. It counts as cell-based, Chinese hamster. To be noted: 1.6 mg/L THF, HY-CDM with cod liver oil. The text has this:
1. Cell line and media: CHO DG44 cell line was used as a DHFR-deficient cell line. The cell line was passaged 80 times or more and suspension adapted in HY-CDM (in-house) media as chemically defined media. The suspension-adapted cell line was used to evaluate the influence of tetrahydrofolate (THF) and dihydrofolate (DHF) and the growth characteristics in commercial chemically defined media. The HY-CDM media were composed of chemically defined components only. Each HY-CDM medium further included a growth factor. HY-CDM media used in Examples 1, 3, and 4 were free of an animal derived lipid mixture, and HY-CDM media used in Example 2 were supplemented with cod liver oil.
2. Cell suspension culture: The cell line was inoculated at a density of 4×10^5 cells/ml and cultured in an Erlenmeyer flask with a 30 ml/125 ml working volume on an orbital shaker at 120 rpm under humidified conditions at 37° C. and 5% CO2. Before inoculation, the cells were centrifuged at 1,000 rpm (×162 g) for 5 min, the supernatant was discarded, and the remaining cells were dispersed into single cells in the heated medium. The cells were passaged three times to minimize the influence of the remaining medium under the experimental conditions. The subcultured cells were evaluated.
3. Density of live cells: The density of live cells was analyzed using a hemocytometer (Neubauer improved bright-line, Marienfeld, Germany), an inverted microscope (CK30, Olympus, Japan), and trypan blue dye exclusion.
A CHO DG44 cell line frozen-stored in an HY-CDM medium supplemented with 1.6 mg/L THF was thawed and subcultured every 2 days. On day 2 after the third passage, a cell density of 21.9±2.2×10^5 cells/ml and a doubling time of 20.3±1.3 h were observed, which were about 28% higher and about 20% more rapid than those of the control (17.1±3.4×10^5 cells/ml and 25.3±3.7 h), respectively (Table 2). The HY-CDM medium included a commercial lipid mixture containing cod liver oil as an animal derived component.

Setting [1] is: after the third passage, subcultured every 2 days.

tetrahydrofolate [THF]: the “Cell density higher than control” value (after the third passage) was “about 28%”. The “Doubling time more rapid than control” value (after the third passage) is on record as “about 20%”. Besides, the “Cell density on day 2” value under setting [1] was 21.9±2.2 ×10^5 cells/ml. Moreover, the Doubling time was 20.3 ± 1.3 h under setting [1]; 21.6 h (number of subcultures 3); 21.1 h (number of subcultures 4); 18.8 h (number of subcultures 5); 20.2 h (number of subcultures 6); 21.3 h (number of subcultures 7). Besides, the Doubling time (number of subcultures 8) turned out to be 18.6 h. In addition, the “Density of live cells on day 2 after culture” value is, setting by setting: (number of subcultures 3) 19.2 ×10^5 cells/ml; (number of subcultures 4) 22.3 ×10^5 cells/ml; (number of subcultures 5) 19.1 ×10^5 cells/ml; (number of subcultures 6) 23.3 ×10^5 cells/ml; (number of subcultures 7) 23.5 ×10^5 cells/ml; (number of subcultures 8) 24.1 ×10^5 cells/ml.
